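Tested at 5 concentrations; 48 h exposure; 96-well plates; endpoints linearly interpolated, else capped at highest concentration. TGI: total growth inhibition.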
How the values were obtained:
Assay in all cases: DTP human tumour cell line panel, 48 h
MDA-N = test system: MDA-N
IGROV1 ovarian = test system: IGROV1 ovarian
RPMI-8226 leukemia = test system: RPMI-8226 leukemia
BT-549 breast = test system: BT-549 breast
SW-620 colon = test system: SW-620 colon
HOP-62 NSCLC = test system: HOP-62 NSCLC
NCI/ADR-RES ovarian = test system: NCI/ADR-RES ovarian
MDA-MB-435 = test system: MDA-MB-435
U251 CNS = test system: U251 CNS
UO-31 renal = test system: UO-31 renal
A549 NSCLC = test system: A549 NSCLC
SN12C renal = test system: SN12C renal
SK-MEL-2 melanoma = test system: SK-MEL-2 melanoma
TK-10 renal = test system: TK-10 renal
NCI-H23 lung = test system: NCI-H23 lung
HCT-116 colon = test system: HCT-116 colon
OVCAR-8 ovarian = test system: OVCAR-8 ovarian
SK-MEL-28 melanoma = test system: SK-MEL-28 melanoma
MCF7 breast = test system: MCF7 breast
OVCAR-3 ovarian = test system: OVCAR-3 ovarian
SK-OV-3 ovarian = test system: SK-OV-3 ovarian
SF-295 CNS = test system: SF-295 CNS
HCT-15 colon = test system: HCT-15 colon
COLO 205 colon = test system: COLO 205 colon
NCI-H460 lung = test system: NCI-H460 lung
HS 578T breast = test system: HS 578T breast
UACC-257 melanoma = test system: UACC-257 melanoma
NCI-H226 lung = test system: NCI-H226 lung
SK-MEL-5 melanoma = test system: SK-MEL-5 melanoma
EKVX NSCLC = test system: EKVX NSCLC
MDA-MB-231 breast = test system: MDA-MB-231 breast
A498 renal = test system: A498 renal
MOLT-4 leukemia = test system: MOLT-4 leukemia
OVCAR-5 ovarian = test system: OVCAR-5 ovarian
T-47D breast = test system: T-47D breast
SR leukemia = test system: SR leukemia
786-0 renal = test system: 786-0 renal
RXF 393 renal = test system: RXF 393 renal
K-562 leukemia = test system: K-562 leukemia
HL-60(TB) leukemia = test system: HL-60(TB) leukemia
HT29 colon = test system: HT29 colon
CAKI-1 renal = test system: CAKI-1 renal
UACC-62 melanoma = test system: UACC-62 melanoma
M14 melanoma = test system: M14 melanoma
KM12 colon = test system: KM12 colon
OVCAR-4 ovarian = test system: OVCAR-4 ovarian
NCI-H522 lung = test system: NCI-H522 lung
SNB-19 CNS = test system: SNB-19 CNS
ACHN renal = test system: ACHN renal
DU-145 prostate = test system: DU-145 prostate
LOX IMVI melanoma = test system: LOX IMVI melanoma
SF-268 CNS = test system: SF-268 CNS
CCRF-CEM leukemia = test system: CCRF-CEM leukemia
PC-3 prostate = test system: PC-3 prostate
SF-539 CNS = test system: SF-539 CNS
HOP-92 NSCLC = test system: HOP-92 NSCLC
MALME-3M melanoma = test system: MALME-3M melanoma
SNB-75 CNS = test system: SNB-75 CNS
HCC-2998 colon = test system: HCC-2998 colon

Measured: TGI

Cc1ccc2c3c1O[C@H]1c4nc5ccccc5cc4C[C@@]4(O)[C@@H](C2)N(CC2CC2)CC[C@]314
37.9 µM: EKVX NSCLC
22.6 µM: OVCAR-8 ovarian
28.2 µM: MALME-3M melanoma
22.7 µM: 786-0 renal
22.3 µM: MCF7 breast | CCRF-CEM leukemia
67.7 µM: NCI-H23 lung
19.3 µM: COLO 205 colon
23 µM: K-562 leukemia
23.4 µM: ACHN renal
18.2 µM: HCT-15 colon
24.7 µM: HS 578T breast
25.8 µM: OVCAR-5 ovarian
21.1 µM: RXF 393 renal
29.5 µM: NCI-H226 lung
23.5 µM: NCI/ADR-RES ovarian | MDA-MB-435 | MDA-MB-231 breast | UACC-62 melanoma
27.5 µM: NCI-H522 lung
25.5 µM: BT-549 breast
18.3 µM: SW-620 colon
22.2 µM: UO-31 renal
35.5 µM: SK-MEL-2 melanoma
19.4 µM: SF-539 CNS
17 µM: LOX IMVI melanoma
46 µM: OVCAR-4 ovarian
25.9 µM: M14 melanoma
25.6 µM: SF-268 CNS
> 100 µM: IGROV1 ovarian | SN12C renal | SK-MEL-28 melanoma | SNB-19 CNS
25.4 µM: MDA-N | RPMI-8226 leukemia
69 µM: DU-145 prostate
20.8 µM: SF-295 CNS
32.7 µM: CAKI-1 renal
41.1 µM: UACC-257 melanoma
18.7 µM: U251 CNS
17.2 µM: HCT-116 colon
16.7 µM: HT29 colon
19.2 µM: SK-MEL-5 melanoma
54.6 µM: TK-10 renal
31.3 µM: HOP-62 NSCLC | SK-OV-3 ovarian
35.6 µM: KM12 colon
30.7 µM: A498 renal
32.2 µM: T-47D breast
25.3 µM: OVCAR-3 ovarian
15.5 µM: MOLT-4 leukemia
35.8 µM: NCI-H460 lung
26.1 µM: HL-60(TB) leukemia
50.9 µM: SR leukemia
26.8 µM: A549 NSCLC
58.3 µM: HOP-92 NSCLC
26.5 µM: PC-3 prostate

Nc1ncnc2c1ncn2C1OC(C(=O)O)C(O)C1O (stereo not given)
not listed: HCC-2998 colon
> 100 µM: all other assays above

Cc1nn(-c2ccccc2)c(C)c1/C=N/NC(=O)c1sc(=S)n(-c2ccccc2)c1N
8.17 µM: EKVX NSCLC
4.36 µM: RXF 393 renal
79.1 µM: NCI-H226 lung
16.3 µM: NCI-H460 lung
7.53 µM: CAKI-1 renal
5.12 µM: LOX IMVI melanoma
31.2 µM: RPMI-8226 leukemia
7.78 µM: MDA-MB-231 breast
7.19 µM: TK-10 renal
19.7 µM: HT29 colon
34.8 µM: A549 NSCLC
59.3 µM: A498 renal
8.46 µM: HS 578T breast
8.74 µM: OVCAR-4 ovarian
3.98 µM: SNB-75 CNS
25.6 µM: SF-539 CNS
4.32 µM: ACHN renal
1.79 µM: IGROV1 ovarian
6.55 µM: SF-295 CNS
48 µM: SK-MEL-28 melanoma
3.55 µM: COLO 205 colon
13.5 µM: HCC-2998 colon
34.5 µM: HCT-116 colon
not listed: NCI-H522 lung | HOP-92 NSCLC
> 100 µM: all other assays above

OCCCNCc1ccccn1
not listed: HCC-2998 colon
> 100 µM: all other assays above
